{"source": "patent US20120009674A1", "about": "“Use of a GSK-3 Inhibitor to Maintain Potency of Cultured Cells” (ABT Holding Company, priority 2005, published 2012)", "key": {"[1]": {"test_system": "mouse mesodermal stem cell line", "details": "Chen, S., et al. (2003); cited from earlier work"}, "[2]": {"assay": "Stability of BIO in culture, expansion media without cells (mass spectroscopy)", "assay_type": "physicochemical", "details": "absence of cells, 72-hour period, 1 μM BIO, 37° C., 18% O2, 5% CO2, expansion media"}, "[3]": {"test_system": "mouse embryonic stem (ES) cell", "details": "mouse ES cells; Oct-3a, Rex-1 and Nanog expression; cited from earlier work"}, "Oct-3A": {"test_system": "Oct-3A", "assay": "Western blot of Oct-3A protein in BIO treated MAPCs", "assay_type": "cell-based, human", "details": "BIO treated vs untreated MAPCs from the same donor, FIG. 3"}, "[4]": {"test_system": "human embryonic stem (ES) cell", "details": "human ES cells; Oct-3a, Rex-1 and Nanog expression; cited from earlier work"}, "CDK2-cyclin A": {"target": "CDK2-cyclin A (Homo sapiens, UniProt P24941)", "details": "at 10 μM; cited from earlier work"}}, "data": [{"smiles": "c1nc2nc(Nc3ccc(N4CCOCC4)cc3)nc(NC3CCCCC3)c2[nH]1", "note": "[reversine]", "values": [{"measurement": "de-differentiation of committed myoblast", "setting": "[1]", "value": "acted to “de-differentiate” the cell line from a committed myoblast, back to the multipotent precursor"}]}, {"smiles": "O=C1Nc2cc(Br)ccc2/C1=C1/Nc2ccccc2/C1=N\\O", "note": "[BIO, 6-bromoindirubin-3′-oxime]", "values": [{"measurement": "BIO stable (native BIO remaining)", "setting": "[2]", "value": "approximately 95%"}, {"measurement": "maintenance of ES cultures in an undifferentiated pluripotent state", "setting": "[3]", "value": "able to substitute for the addition of feeder cultures or addition of exogenous cytokines in maintaining the ES cultures in an undifferentiated pluripotent state"}, {"measurement": "Oct-3A protein level (Western blot)", "setting": "Oct-3A", "value": "increases or protects the amount of detectable Oct-3A"}, {"measurement": "maintenance of ES cultures in an undifferentiated pluripotent state", "setting": "[4]", "value": "able to substitute for the addition of feeder cultures or addition of exogenous cytokines in maintaining the ES cultures in an undifferentiated pluripotent state"}]}, {"smiles": "CN(C)CCC(=O)Nc1n[nH]c2nnc(-c3ccccc3)cc12", "note": "[Pyrazolopyridine 9]", "values": [{"measurement": "Inhibits CDK2-cyclin A", "setting": "CDK2-cyclin A", "value": "A (90% at 10 μM)"}]}, {"smiles": "CCCC(=O)Nc1n[nH]c2ncc(-c3ccccc3F)cc12", "note": "[Pyrazolopyridine 18]", "values": [{"measurement": "Inhibits CDK2-cyclin A", "setting": "CDK2-cyclin A", "value": "A (95% at 10 μM)"}]}]}
